# Reference: the supplement of paper PMC10307832
# How the values were obtained:
# Assay in all cases: relative viability (nuclei count vs DMSO), 5 days (fraction); higher = more cells survive
# RU-SKI 43 + Crizotinib = compound: CC[C@@H](C)CNCC(=O)N1CCC2=C([C@@H]1COC3=CC=CC(=C3)C)C=CS2 [RU-SKI 43] + C[C@@H](Oc1cc(-c2cnn(C3CCNCC3)c2)cnc1N)c1c(Cl)ccc(F)c1Cl [Crizotinib] (partner 1 µM)
# How it was run: (§1)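 Cells from lung cancer lines were seeded into 1536-well plates and, one day later, dosed by pin tool. Treatments were either a single drug or a fixed dose of an anchor drug with five library-drug doses (not always all listed) in √10 steps. After 5 days, nuclei were stained in a one-step fixation (final 0.05% Triton X-100, 1% formaldehyde, 1 ug/ml Hoechst) and counted on 4× images, and relative viability is the treated-to-vehicle nuclei ratio, as the median of duplicate plates.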
# RU-SKI 43 + Olaparib = compound: CC[C@@H](C)CNCC(=O)N1CCC2=C([C@@H]1COC3=CC=CC(=C3)C)C=CS2 [RU-SKI 43] + O=C(c1cc(Cc2n[nH]c(=O)c3ccccc23)ccc1F)N1CCN(C(=O)C2CC2)CC1 [Olaparib] (partner 8 µM)
# How it was run: as §1
# RU-SKI 43 + Alpelisib = compound: CC[C@@H](C)CNCC(=O)N1CCC2=C([C@@H]1COC3=CC=CC(=C3)C)C=CS2 [RU-SKI 43] + Cc1nc(NC(=O)N2CCC[C@H]2C(N)=O)sc1-c1ccnc(C(C)(C)C(F)(F)F)c1 [Alpelisib] (partner 2 µM)
# How it was run: as §1
# RU-SKI 43 + Linsitinib = compound: CC[C@@H](C)CNCC(=O)N1CCC2=C([C@@H]1COC3=CC=CC(=C3)C)C=CS2 [RU-SKI 43] + C[C@]1(O)C[C@@H](c2nc(-c3ccc4ccc(-c5ccccc5)nc4c3)c3c(N)nccn32)C1 [Linsitinib] (partner 1 µM)
# How it was run: as §1
Cell Line,relative viability (RU-SKI 43 + Crizotinib; first compound 0.1 µM),relative viability (RU-SKI 43 + Crizotinib; first compound 0.3162 µM),relative viability (RU-SKI 43 + Crizotinib; first compound 1 µM),relative viability (RU-SKI 43 + Crizotinib; first compound 3.162 µM),relative viability (RU-SKI 43 + Crizotinib; first compound 10 µM),relative viability (RU-SKI 43 + Olaparib; first compound 0.1 µM),relative viability (RU-SKI 43 + Olaparib; first compound 0.3162 µM),relative viability (RU-SKI 43 + Olaparib; first compound 1 µM),relative viability (RU-SKI 43 + Olaparib; first compound 3.162 µM),relative viability (RU-SKI 43 + Olaparib; first compound 10 µM),relative viability (RU-SKI 43 + Alpelisib; first compound 0.1 µM),relative viability (RU-SKI 43 + Alpelisib; first compound 0.3162 µM),relative viability (RU-SKI 43 + Alpelisib; first compound 1 µM),relative viability (RU-SKI 43 + Alpelisib; first compound 3.162 µM),relative viability (RU-SKI 43 + Alpelisib; first compound 10 µM),relative viability (RU-SKI 43 + Linsitinib; first compound 0.1 µM),relative viability (RU-SKI 43 + Linsitinib; first compound 0.3162 µM),relative viability (RU-SKI 43 + Linsitinib; first compound 1 µM),relative viability (RU-SKI 43 + Linsitinib; first compound 3.162 µM),relative viability (RU-SKI 43 + Linsitinib; first compound 10 µM)
201T,1.02,0.991,1.06,1.06,0.992,0.835,0.888,0.843,0.858,0.836,1.08,1.01,0.984,1.03,1.01,1.07,1.02,1.07,1.17,1.03
A549,0.775,1.12,0.847,0.71,0.52,0.362,0.462,0.277,0.278,0.291,0.991,0.957,0.738,0.772,0.621,0.73,0.762,0.656,0.596,0.613
A-427,0.832,0.809,0.904,,0.651,0.707,0.759,0.68,0.752,0.626,1.13,1.16,1.18,,1.02,1.08,1.22,1.13,,1.01
ABC-1,0.993,1.21,1.26,0.939,0.563,0.714,0.786,0.908,0.926,0.705,1.02,1.13,0.895,0.986,1.06,0.924,0.775,0.801,0.569,0.845
BEN,0.933,1.14,1.03,0.865,0.758,1.16,1.2,1.09,1.09,1.07,1.04,1.13,1.07,1.06,1,1.02,1.2,1.15,0.965,0.922
CAL-12T,0.494,0.747,0.652,0.896,0.653,0.709,0.804,0.855,0.666,0.698,1.06,1.53,1.44,1.39,1.25,0.726,0.873,0.877,0.827,0.771
COR-L23,0.752,0.598,0.736,0.667,0.492,0.333,0.403,0.377,0.325,0.359,0.87,0.657,0.725,0.757,0.815,0.971,0.847,0.815,0.83,1.09
COR-L 105,0.682,0.697,0.858,0.712,0.438,0.658,0.57,0.815,0.683,0.603,0.935,0.818,0.931,0.916,0.921,0.955,1.08,1.02,1.08,0.945
Calu-6,0.781,0.871,0.936,0.726,0.594,0.555,0.621,0.622,0.615,0.499,0.994,1.14,0.994,1.03,0.989,0.942,1.05,0.999,0.929,1.02
ChaGo-K-1,1.15,1.27,1.26,1.17,0.951,0.391,0.446,0.413,0.403,0.383,,,,,,,,,,
EBC-1,0.19,0.183,0.202,0.176,0.155,0.817,0.883,0.759,0.729,0.642,0.784,0.92,0.925,0.799,0.68,1.04,0.936,0.847,0.956,0.827
EKVX,0.902,1.01,0.926,0.987,0.713,0.716,0.971,0.866,1.04,0.849,0.79,0.949,0.828,0.946,0.839,0.948,1.24,0.977,1.05,1
EMC-BAC-2,0.789,0.793,0.811,0.828,0.751,0.476,0.495,0.54,0.487,0.486,0.769,0.752,0.762,0.733,0.893,0.811,0.982,0.895,0.838,0.851
EPLC-272H,0.981,0.964,1.01,,0.812,0.597,0.648,0.813,0.697,0.64,1.12,0.968,0.987,,0.948,1.35,1.37,1.41,,1.07
H3255,0.858,0.885,0.976,0.791,0.874,0.579,0.594,0.572,0.574,0.529,0.719,0.834,0.773,0.725,0.686,0.913,0.926,0.943,1.09,0.891
HARA,1.16,0.971,1.08,1.18,0.975,0.822,0.735,0.754,0.894,0.923,0.762,0.729,0.843,0.69,0.733,1.03,1.02,1.09,1.05,0.851
HCC-15,0.806,1.01,0.962,0.873,0.807,0.71,0.874,0.755,0.772,0.627,0.96,1.02,0.963,0.931,0.844,0.964,1.1,0.988,0.946,0.882
HCC-44,0.778,0.785,0.846,0.796,0.806,0.984,0.981,1.06,1.06,0.954,0.73,0.72,0.901,0.875,0.802,0.595,0.647,0.835,0.69,0.645
HCC-78,0.334,0.305,0.35,0.353,0.302,0.849,1.02,0.767,0.868,0.856,0.349,0.325,0.378,0.436,0.29,0.576,0.551,0.712,0.344,0.551

Cell Line,relative viability (RU-SKI 43 + Crizotinib; first compound 0.1 µM),relative viability (RU-SKI 43 + Crizotinib; first compound 0.3162 µM),relative viability (RU-SKI 43 + Crizotinib; first compound 1 µM),relative viability (RU-SKI 43 + Crizotinib; first compound 3.162 µM),relative viability (RU-SKI 43 + Crizotinib; first compound 10 µM),relative viability (RU-SKI 43 + Olaparib; first compound 0.1 µM),relative viability (RU-SKI 43 + Olaparib; first compound 0.3162 µM),relative viability (RU-SKI 43 + Olaparib; first compound 1 µM),relative viability (RU-SKI 43 + Olaparib; first compound 3.162 µM),relative viability (RU-SKI 43 + Olaparib; first compound 10 µM),relative viability (RU-SKI 43 + Alpelisib; first compound 0.1 µM),relative viability (RU-SKI 43 + Alpelisib; first compound 0.3162 µM),relative viability (RU-SKI 43 + Alpelisib; first compound 1 µM),relative viability (RU-SKI 43 + Alpelisib; first compound 3.162 µM),relative viability (RU-SKI 43 + Alpelisib; first compound 10 µM),relative viability (RU-SKI 43 + Linsitinib; first compound 0.1 µM),relative viability (RU-SKI 43 + Linsitinib; first compound 0.3162 µM),relative viability (RU-SKI 43 + Linsitinib; first compound 1 µM),relative viability (RU-SKI 43 + Linsitinib; first compound 3.162 µM),relative viability (RU-SKI 43 + Linsitinib; first compound 10 µM)
HCC-366,0.454,0.392,0.548,0.486,0.27,0.307,0.464,0.314,0.424,0.31,0.439,0.53,0.438,0.572,0.355,0.604,1.83,0.694,0.608,0.592
HCC-827,0.956,1.01,0.987,0.916,0.602,0.614,0.733,0.659,0.72,0.669,0.92,1.06,1.03,1.01,0.965,0.96,0.936,1.04,1.02,0.734
HOP-62,0.7,1.01,1.09,0.829,0.977,0.322,0.235,0.223,0.511,0.436,0.978,0.934,1.26,1.09,1.01,1.04,0.938,1.1,1.17,1.04
IA-LM,0.759,0.797,0.663,0.736,0.64,0.877,0.87,0.976,0.732,0.812,1.02,0.795,0.902,0.91,0.694,0.623,0.563,0.512,0.552,0.577
LC-2-ad,0.443,0.392,0.535,,0.43,0.697,0.774,0.771,0.712,0.677,0.836,1.02,0.932,0.924,0.779,0.818,0.831,0.899,0.857,0.726
LCLC-97TM1,0.424,,0.331,0.267,0.287,0.408,0.347,0.535,0.446,0.416,0.215,,0.206,0.241,0.234,0.221,,0.172,0.201,0.182
LCLC-103H,1.08,1.12,1.08,1.09,0.926,0.748,0.865,0.882,0.829,0.816,0.941,1.06,1.05,1.14,0.91,1.04,1.11,1.05,1.2,1.15
LK-2,0.206,0.219,0.256,,0.199,0.808,0.639,0.788,0.612,0.75,1.27,1.41,1.18,,1.24,0.74,0.564,0.674,0.495,0.889
LOU-NH91,0.795,0.818,0.719,0.754,0.715,0.908,0.94,0.973,0.926,0.879,0.72,0.738,0.711,0.681,0.7,0.94,0.932,0.945,0.872,0.944
NCI-H522,,,,,,0.661,0.641,0.596,0.707,0.601,,,,,,,,,,
NCI-H1395,,,,,,0.452,0.417,0.451,0.477,0.46,1.14,1.38,0.936,1.29,0.836,0.994,1.43,1.1,0.968,1.15
NCI-H1563,0.789,0.773,0.825,0.836,0.734,,,,,,0.862,0.925,0.903,0.853,0.862,1.2,1.2,1.11,1.09,1.13
NCI-H1648,,,,,,1.02,1.06,0.614,0.91,0.835,,,,,,,,,,
NCI-H1650,0.968,0.916,0.971,0.991,0.67,0.654,1.03,0.823,0.919,0.709,,,,,,,,,,
NCI-H1793,,,,,,0.744,0.558,1.02,0.833,0.719,0.676,0.784,0.764,0.894,0.686,0.98,0.959,0.988,0.928,0.809
NCI-H2170,1.26,1.42,1.49,1.22,1.07,0.587,0.683,0.599,0.61,0.59,0.78,0.855,0.86,0.826,0.808,,,,,
NCI-H2342,,,,,,0.387,,0.44,0.428,0.358,,,,,,,,,,
SW 900,,,,,,0.94,0.952,0.821,0.814,0.806,,,,,,,,,,
